# In PMC12377202, “Design, synthesis, and cytotoxic evaluation of quinazoline-based derivatives as VEGER-2 inhibitors: comparative study against EGFR kinase activity, induction of apoptosis, and molecular docking study” (RSC Advances, 2025):
# Experiments:
# Assay type in all cases: cell-based, human
# caspase-3 = experiment: Caspase-3 expression level in HepG-2 cells; conditions: for Caspase-3 ± SE: HepG-2, at IC50 concentrations, control 0.460; for caspase-3 expression level, fold increase: HepG-2, vs control cells
# Protocol: (§1) All synthesized compounds were tested at their cytotoxic concentrations in HepG-2 cells for analysis of gene expression levels of apoptotic markers caspase-3, caspase-9, TNF-α, and IL-6 proteins, and only two active compounds were tested for BAX and Bcl-2 proteins.
# (§2) through Flow cytometric analysis.
# (§3) Pellets were collected again and incubated with
# (§4) Total RNA from vehicle-treated
# (§5) (Thermo Scientific, USA).
# (§6) All experiments were performed in […]
# caspase-9 = experiment: Caspase-9 expression level in HepG-2 cells; conditions: for Caspase-9 ± SE: HepG-2, at IC50 concentrations, control 11.01; for caspase-9 expression level, fold increase: HepG-2, vs control cells
# Protocol: as §1, §2, §3, §4, §5, §6
# MCF-7 = experiment: MTT anti-proliferative assay, MCF-7; conditions: Homo sapiens, MCF7; for viability at 0.195 µmol / cytotoxicity at 0.195 µmol: MCF-7, 0.195 umol; for cytotoxicity at 0.195 µmol / cytotoxicity at 0.391 µmol / cytotoxicity at 0.781 µmol / cytotoxicity at 1.563 µmol / cytotoxicity at 3.125 µmol / cytotoxicity at 6.25 µmol / cytotoxicity at 12.5 µmol / cytotoxicity at 25 µmol: read-out: Toxicity %; for viability at 0.391 µmol / cytotoxicity at 0.391 µmol: MCF-7, 0.391 umol; for viability at 0.781 µmol / cytotoxicity at 0.781 µmol: MCF-7, 0.781 umol; for viability at 1.563 µmol / cytotoxicity at 1.563 µmol: MCF-7, 1.563 umol; for viability at 3.125 µmol / cytotoxicity at 3.125 µmol: MCF-7, 3.125 umol; for viability at 6.25 µmol / cytotoxicity at 6.25 µmol: MCF-7, 6.25 umol; for viability at 12.5 µmol / cytotoxicity at 12.5 µmol: MCF-7, 12.5 umol; for viability at 25 µmol / cytotoxicity at 25 µmol: MCF-7, 25 umol; for IC50: MTT, MCF-7, read-out: Cytotoxicity against cancer cells IC50 MCF-7
# TNF-alpha = TNF-alpha level in HepG-2 cells; conditions: control 43.48
# Protocol: as §1, §2, §3, §4, §5, §6
# HepG-2 = experiment: MTT anti-proliferative assay, HepG-2; conditions: Homo sapiens, HepG2; for viability at 0.195 µg/mL / cytotoxicity at 0.195 µg/mL: HepG-2, 0.195 ug/ml; for cytotoxicity at 0.195 µg/mL / cytotoxicity at 0.391 µg/mL / cytotoxicity at 0.781 µg/mL / cytotoxicity at 1.563 µg/mL / cytotoxicity at 3.125 µg/mL / cytotoxicity at 6.25 µg/mL / cytotoxicity at 12.5 µg/mL / cytotoxicity at 25 µg/mL: read-out: Toxicity %; for viability at 0.391 µg/mL / cytotoxicity at 0.391 µg/mL: HepG-2, 0.391 ug/ml; for viability at 0.781 µg/mL / cytotoxicity at 0.781 µg/mL: HepG-2, 0.781 ug/ml; for viability at 1.563 µg/mL / cytotoxicity at 1.563 µg/mL: HepG-2, 1.563 ug/ml; for viability at 3.125 µg/mL / cytotoxicity at 3.125 µg/mL: HepG-2, 3.125 ug/ml; for viability at 6.25 µg/mL / cytotoxicity at 6.25 µg/mL: HepG-2, 6.25 ug/ml; for viability at 12.5 µg/mL / cytotoxicity at 12.5 µg/mL: HepG-2, 12.5 ug/ml; for viability at 25 µg/mL / cytotoxicity at 25 µg/mL: HepG-2, 25 ug/ml; for IC50: MTT, HepG-2, read-out: Cytotoxicity against cancer cells IC50 HepG-2
# K-562 = experiment: MTT anti-proliferative assay, K-562; conditions: Homo sapiens, K562; for viability at 0.195 µmol / cytotoxicity at 0.195 µmol: K-562, 0.195 umol; for cytotoxicity at 0.195 µmol / cytotoxicity at 0.391 µmol / cytotoxicity at 0.781 µmol / cytotoxicity at 1.563 µmol / cytotoxicity at 3.125 µmol / cytotoxicity at 6.25 µmol / cytotoxicity at 12.5 µmol / cytotoxicity at 25 µmol: read-out: Toxicity %; for viability at 0.391 µmol / cytotoxicity at 0.391 µmol: K-562, 0.391 umol; for viability at 0.781 µmol / cytotoxicity at 0.781 µmol: K-562, 0.781 umol; for viability at 1.563 µmol / cytotoxicity at 1.563 µmol: K-562, 1.563 umol; for viability at 3.125 µmol / cytotoxicity at 3.125 µmol: K-562, 3.125 umol; for viability at 6.25 µmol / cytotoxicity at 6.25 µmol: K-562, 6.25 umol; for viability at 12.5 µmol / cytotoxicity at 12.5 µmol: K-562, 12.5 umol; for viability at 25 µmol / cytotoxicity at 25 µmol: K-562, 25 umol; for IC50: MTT, K-562, read-out: Cytotoxicity against cancer cells IC50 K-562
# IL-6R = IL-6R level in HepG-2 cells; conditions: for IL-6R ± SE: HepG-2, at IC50 concentrations; for IL-6R ± SE / IL-6 ±SE: control 44.10; for IL-6R protein level: HepG-2, control 44.10%; for IL-6 ±SE: raw data, HepG2
# Protocol: as §1, §2, §3, §4, §5, §6
smiles,measurement,setting,value
"O=C(Cn1cnc2cc(Cl)ccc2c1=O)Nc1ccc(Cl)cc1 [8c, 2-(7-Chloro-4-oxoquinazolin-3(4H)-yl)-N-(4-chlorophenyl)acetamide]",Caspase-3 ± SE,caspase-3,1.25 ± 0.090 ng/mL
same,Caspase-3 ± SE,caspase-3; listed as R1,1.25 ng/mL
same,"caspase-3 expression level, fold increase",caspase-3,2.72 fold
same,Caspase-9 ± SE,caspase-9,26.98 ± 1.30 ng/L
same,Caspase-9 ± SE,caspase-9; listed as R1,26.98 ng/L
same,"caspase-9 expression level, fold increase",caspase-9,2.5 fold
same,viability at 0.195 µmol,MCF-7,46.1%
same,cytotoxicity at 0.195 µmol,MCF-7,53.9%
same,viability at 0.391 µmol,MCF-7,32.9%
same,cytotoxicity at 0.391 µmol,MCF-7,67.1%
same,viability at 0.781 µmol,MCF-7,20.3%
same,cytotoxicity at 0.781 µmol,MCF-7,79.7%
same,viability at 1.563 µmol,MCF-7,13.1%
same,cytotoxicity at 1.563 µmol,MCF-7,86.9%
same,viability at 3.125 µmol,MCF-7,10.2%
same,cytotoxicity at 3.125 µmol,MCF-7,89.8%
same,viability at 6.25 µmol,MCF-7,8.44%
same,cytotoxicity at 6.25 µmol,MCF-7,91.6%
same,viability at 12.5 µmol,MCF-7,8.05%
same,cytotoxicity at 12.5 µmol,MCF-7,92%
same,viability at 25 µmol,MCF-7,6.64%
same,cytotoxicity at 25 µmol,MCF-7,93.4%
same,IC50,MCF-7,188 ± 2.6 nM
same,TNF-alpha ±SE,"TNF-alpha; HepG-2, at IC50 concentrations",9.13 ± 0.37 ng/L
same,TNF-alpha ±SE,"TNF-alpha; raw data, HepG2",10.2 ng/L
same,viability at 0.195 µg/mL,HepG-2,89.2%
same,cytotoxicity at 0.195 µg/mL,HepG-2,10.8%
same,viability at 0.391 µg/mL,HepG-2,65.9%
same,cytotoxicity at 0.391 µg/mL,HepG-2,34.1%
same,viability at 0.781 µg/mL,HepG-2,47.8%
same,cytotoxicity at 0.781 µg/mL,HepG-2,52.2%
same,viability at 1.563 µg/mL,HepG-2,29.9%
same,cytotoxicity at 1.563 µg/mL,HepG-2,70.1%
same,viability at 3.125 µg/mL,HepG-2,15.9%
same,cytotoxicity at 3.125 µg/mL,HepG-2,84.1%
same,viability at 6.25 µg/mL,HepG-2,11%
same,cytotoxicity at 6.25 µg/mL,HepG-2,89%
same,viability at 12.5 µg/mL,HepG-2,7.66%
same,cytotoxicity at 12.5 µg/mL,HepG-2,92.3%
same,viability at 25 µg/mL,HepG-2,6.7%
same,cytotoxicity at 25 µg/mL,HepG-2,93.3%
same,IC50,HepG-2,734.4 ± 2.3 nM
same,viability at 0.195 µmol,K-562,80.8%
same,cytotoxicity at 0.195 µmol,K-562,19.2%
same,viability at 0.391 µmol,K-562,60.1%
same,cytotoxicity at 0.391 µmol,K-562,39.9%
same,viability at 0.781 µmol,K-562,34.4%
same,cytotoxicity at 0.781 µmol,K-562,65.6%
same,viability at 1.563 µmol,K-562,19.5%
same,cytotoxicity at 1.563 µmol,K-562,80.5%
same,viability at 3.125 µmol,K-562,13%
same,cytotoxicity at 3.125 µmol,K-562,87%
same,viability at 6.25 µmol,K-562,9.89%
same,cytotoxicity at 6.25 µmol,K-562,90.1%
same,viability at 12.5 µmol,K-562,8.25%
same,cytotoxicity at 12.5 µmol,K-562,91.7%
same,viability at 25 µmol,K-562,6.53%
same,cytotoxicity at 25 µmol,K-562,93.5%
same,IC50,K-562,544.4 ± 3.2 nM
same,IL-6R ± SE,IL-6R,14.73 ± 1.06 ng/L
same,IL-6R protein level,IL-6R,14.73 ng/L
same,IL-6 ±SE,IL-6R,16.64 ng/L
"O=C(Cn1cnc2cc(Cl)ccc2c1=O)Nc1ccc(F)c(Cl)c1 [8e, N-(3-Chloro-4-fluorophenyl)-2-(7-chloro-4-oxoquinazolin-3(4H)-yl)acetamide]",Caspase-3 ± SE,caspase-3,1.54 ± 0.11 ng/mL
same,Caspase-3 ± SE,caspase-3; listed as R5,1.54 ng/mL
same,"caspase-3 expression level, fold increase",caspase-3,3.35 fold
same,Caspase-9 ± SE,caspase-9,48.44 ± 1.24 ng/L
same,Caspase-9 ± SE,caspase-9; listed as R5,48.44 ng/L
same,"caspase-9 expression level, fold increase",caspase-9,4.4 fold
same,viability at 0.195 µmol,MCF-7,81.5%
same,cytotoxicity at 0.195 µmol,MCF-7,18.5%
same,viability at 0.391 µmol,MCF-7,62.1%
same,cytotoxicity at 0.391 µmol,MCF-7,37.9%
same,viability at 0.781 µmol,MCF-7,32.7%
same,cytotoxicity at 0.781 µmol,MCF-7,67.3%
same,viability at 1.563 µmol,MCF-7,19%
same,cytotoxicity at 1.563 µmol,MCF-7,81%
same,viability at 3.125 µmol,MCF-7,12.8%
same,cytotoxicity at 3.125 µmol,MCF-7,87.2%
same,viability at 6.25 µmol,MCF-7,9.01%
same,cytotoxicity at 6.25 µmol,MCF-7,91%
same,viability at 12.5 µmol,MCF-7,7.65%
same,cytotoxicity at 12.5 µmol,MCF-7,92.3%
same,viability at 25 µmol,MCF-7,6.46%
same,cytotoxicity at 25 µmol,MCF-7,93.5%
same,IC50,MCF-7,552.3 ± 1.7 nM
same,TNF-alpha ±SE,"TNF-alpha; HepG-2, at IC50 concentrations",32.07 ± 2.32 ng/L
same,TNF-alpha ±SE,"TNF-alpha; raw data, HepG2",27.34 ng/L
same,viability at 0.195 µg/mL,HepG-2,93.8%
same,cytotoxicity at 0.195 µg/mL,HepG-2,6.15%
same,viability at 0.391 µg/mL,HepG-2,75.6%
same,cytotoxicity at 0.391 µg/mL,HepG-2,24.4%
same,viability at 0.781 µg/mL,HepG-2,62.3%
same,cytotoxicity at 0.781 µg/mL,HepG-2,37.7%
same,viability at 1.563 µg/mL,HepG-2,47.6%
same,cytotoxicity at 1.563 µg/mL,HepG-2,52.4%
same,viability at 3.125 µg/mL,HepG-2,23.1%
same,cytotoxicity at 3.125 µg/mL,HepG-2,76.9%
same,viability at 6.25 µg/mL,HepG-2,11.9%
same,cytotoxicity at 6.25 µg/mL,HepG-2,88.1%
same,viability at 12.5 µg/mL,HepG-2,9.45%
same,cytotoxicity at 12.5 µg/mL,HepG-2,90.5%
same,viability at 25 µg/mL,HepG-2,7.22%
same,cytotoxicity at 25 µg/mL,HepG-2,92.8%
same,IC50,HepG-2,1436 ± 7.3 nM
same,viability at 0.195 µmol,K-562,52.8%
same,cytotoxicity at 0.195 µmol,K-562,47.2%
same,viability at 0.391 µmol,K-562,45.2%
same,cytotoxicity at 0.391 µmol,K-562,54.8%
same,viability at 0.781 µmol,K-562,31.6%
same,cytotoxicity at 0.781 µmol,K-562,68.4%
same,viability at 1.563 µmol,K-562,21.1%
same,cytotoxicity at 1.563 µmol,K-562,78.9%
same,viability at 3.125 µmol,K-562,10.3%
same,cytotoxicity at 3.125 µmol,K-562,89.7%
same,viability at 6.25 µmol,K-562,8.78%
same,cytotoxicity at 6.25 µmol,K-562,91.2%
same,viability at 12.5 µmol,K-562,7.43%
same,cytotoxicity at 12.5 µmol,K-562,92.6%
same,viability at 25 µmol,K-562,5.91%
same,cytotoxicity at 25 µmol,K-562,94.1%
same,IC50,K-562,266.4 ± 1.7 nM
same,IL-6R ± SE,IL-6R,11.93 ± 0.25 ng/L
same,IL-6R protein level,IL-6R,11.93 ng/L
same,IL-6 ±SE,IL-6R,28.78 ng/L
